We go through one molecule from patent publication US20210330596A1, “PHARMACEUTICAL COMPOSITION FOR USE IN A COMBINATION WITH CA[…] ENHANCE BENEFITS OF CA[…] SUPPORT HUMAN ENDOCANNABINOID SYSTEM” (priority 2020, published 2021).

Values joined by “and” are separate entries in the source; they are usually repeats but may differ in a detail not shown here. Equal entries are not always repeated.

The subject of this test is mice's endocannabinoid system. As to the kind of experiment: maze and food trial: time the mice need to solve the maze after feed. Type of test: in vivo. The conditions noted are these: for time to solve the maze, Time 0, individual mouse / time to solve the maze, Time 0, Average: 10 minutes after feed; for time to solve the maze, Time 0, individual mouse / time to solve the maze, Time 1, individual mouse: mouse # 1-10 in table order; for time to solve the maze, Time 0, Average / time to solve the maze, Time 1, Average: ten mice; for time to solve the maze, Time 1, individual mouse / time to solve the maze, Time 1, Average: 120 minutes after feed. Here is the method: In an embodiment, the pharmaceutical composition of the present invention relates to an essential oil rich composition that supports the endocannabinoid system. Following tables 1-5 describe trials conducted with ten mice (Wistar) utilizing a maze and food to determine how long on average the mice solves the maze at 10 and 120 minutes after starting the experiment.
Table 1 is the base when the mice learned the experiment. It took 7 days of training (4 repetitions per day) to get the base time for each mice.
The Average Time results were statistically slower to the Control (Table 3) results with a standard deviation of less than 3%. The slowness with which the mice solved the maze leads us to believe either the embodiment has some entourage effect (as described by Ben-Shabat et. Al. in the European Journal of Pharmacology, 1998) or has supported the endocannabinoid system in mice because the mice took at least as long to solve the maze as before they developed tolerance to THC. The Entourage Effect was also described by Russo et. al. in his paper “Taming THC: potential cannabis synergy and phytocannabinoid-terpenoid entourage effects”, published in the British Journal of Pharmacology, 2011 August; 163(7): 1344-1364.
In this Table we see the results of THC 24 hours after the embodiment was administered. Mice on average take 1-5 hours to digest food. It is estimated that mice will have completely metabolized the embodiment after 24 hours. After THC was administered but now without the embodiment, mice are experiencing the same heightened effects of THC as in FIG. 4, even after the embodiment was not present in their body after a 24 hour period.

[1] abbreviates: Day 1 CONTROL, 0.3 mgTHC/kg, before tolerance.
The mark [2] stands for this setting: Day 14 BASELINE 2 (acquired tolerance), 0.3 mgTHC/kg/day.
[3] abbreviates: TRIAL 2, 0.3 mgTHC + 0.0 mg embodiment/kg, THC 24 hours after the embodiment was administered.

In the case of `CCCCCc1cc(O)c2c(c1)OC(C)(C)[C@@H]1CCC(C)=C[C@@H]21` [THC, Tetrahydrocannabinol], under setting [1], the “time to solve the maze, Time 0, individual mouse” value (shortened to “time … Time 0, individual mouse”) was 16 ± 3 minutes and 17 ± 3 minutes (2×) and 23 ± 3 minutes and 20 ± 3 minutes and 25 ± 3 minutes and 30 ± 3 minutes and 26 ± 3 minutes and 19 ± 3 minutes and 24 ± 3 minutes; the “time to solve the maze, Time 0, Average” value came out at 22 ± 3 min; the “time to solve the maze, Time 1, individual mouse” value (shortened to “time … Time 1, individual mouse”) was 14 ± 3 minutes (2×) and 10 ± 3 minutes (2×) and 19 ± 3 minutes (2×) and 22 ± 3 minutes (2×) and 21 ± 3 minutes and 16 ± 3 minutes; the “time to solve the maze, Time 1, Average” value came to 17 ± 3 min. In addition, under setting [2], the “time … Time 0, individual mouse” value is 16 ± 3 minutes (2×) and 19 ± 3 minutes (2×) and 18 ± 3 minutes (2×) and 14 ± 3 minutes and 13 ± 3 minutes and 12 ± 3 minutes and 11 ± 3 minutes; the “time to solve the maze, Time 0, Average” value was found to be 14 ± 3 min; the “time … Time 1, individual mouse” value was 14 ± 3 minutes and 15 ± 3 minutes (2×) and 12 ± 3 minutes and 10 ± 3 minutes (4×) and 11 ± 3 minutes (2×); the “time to solve the maze, Time 1, Average” value was 12 ± 3 min. Under setting [3], the “time … Time 0, individual mouse” value was 27 ± 3 minutes (2×) and 20 ± 3 minutes and 22 ± 3 minutes (2×) and 17 ± 3 minutes and 16 ± 3 minutes and 21 ± 3 minutes and 18 ± 3 minutes and 29 ± 3 minutes; the “time to solve the maze, Time 0, Average” value is 22 ± 3 min; the “time … Time 1, individual mouse” value was 22 ± 3 minutes and 19 ± 3 minutes (2×) and 16 ± 3 minutes and 23 ± 3 minutes and 15 ± 3 minutes and 12 ± 3 minutes and 9 ± 3 minutes and 17 ± 3 minutes and 20 ± 3 minutes; the “time to solve the maze, Time 1, Average” value was 17 ± 3 min. Moreover, under “after 15 days of daily THC dose of 0.3 mgTHC/kg, Time 0 (10 minutes after feed), tolerance to THC”, the “maze solved faster on average than the Control Time, T0” value was 40%. For the setting “after 15 days of daily THC dose of 0.3 mgTHC/kg, Time 1 (120 minutes after feed), tolerance to THC”, the “maze solved faster on average than the Control Time, T1” value is “up to 60%”.
